Laboratory results: article PMC11491390, “Inhibition of HCN1 currents by norquetiapine, an active metabolite of the atypical anti-psychotic drug quetiapine” (Frontiers in Pharmacology, 2024)

Target: T1, HCN1 (Mus musculus, UniProt O88704)
T1 construct: full-length HCN1
Assay: two-electrode voltage clamp, channel expressed in Xenopus laevis oocytes (shift in V1/[…])
Assay type: cell-based

T1 sequence (O88704 whole entry): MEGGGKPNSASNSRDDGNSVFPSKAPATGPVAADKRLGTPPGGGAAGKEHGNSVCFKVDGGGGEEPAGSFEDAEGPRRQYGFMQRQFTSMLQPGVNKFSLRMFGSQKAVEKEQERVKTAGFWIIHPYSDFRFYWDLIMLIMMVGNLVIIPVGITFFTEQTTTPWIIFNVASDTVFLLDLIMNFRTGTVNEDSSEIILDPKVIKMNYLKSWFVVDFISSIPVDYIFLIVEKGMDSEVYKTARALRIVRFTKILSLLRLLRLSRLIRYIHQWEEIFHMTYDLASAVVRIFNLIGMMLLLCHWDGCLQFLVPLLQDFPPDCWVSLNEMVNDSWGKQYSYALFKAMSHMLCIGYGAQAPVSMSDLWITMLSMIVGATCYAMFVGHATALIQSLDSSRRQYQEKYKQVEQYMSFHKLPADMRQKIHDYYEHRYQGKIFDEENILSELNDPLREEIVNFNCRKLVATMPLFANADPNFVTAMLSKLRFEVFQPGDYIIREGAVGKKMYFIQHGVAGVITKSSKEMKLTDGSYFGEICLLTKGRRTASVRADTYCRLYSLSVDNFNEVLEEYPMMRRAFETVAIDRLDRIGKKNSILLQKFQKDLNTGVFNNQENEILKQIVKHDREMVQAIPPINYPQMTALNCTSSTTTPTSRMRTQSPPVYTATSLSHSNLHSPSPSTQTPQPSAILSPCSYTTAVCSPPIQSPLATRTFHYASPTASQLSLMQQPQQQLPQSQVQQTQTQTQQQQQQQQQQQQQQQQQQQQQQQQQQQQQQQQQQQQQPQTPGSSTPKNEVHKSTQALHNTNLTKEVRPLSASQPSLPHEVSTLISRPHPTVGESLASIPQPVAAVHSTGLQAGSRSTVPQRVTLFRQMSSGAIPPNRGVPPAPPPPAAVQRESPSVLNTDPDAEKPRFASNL

c1ccc2c(c1)N=C(N1CCNCC1)c1ccccc1S2 [NQTP, norquetiapine]
IC50: 13.9 ± 0.8 µM
